Among the test systems are 786-0 renal; CAKI-1 renal; COLO 205 colon; HOP-62 NSCLC; HS 578T breast; K-562 leukemia; NCI-H460 lung; OVCAR-3 ovarian; OVCAR-5 ovarian; PC-3 prostate; RPMI-8226 leukemia; SF-268 CNS; SF-539 CNS; SK-OV-3 ovarian; SN12C renal; SNB-19 CNS; U251 CNS.
What all share (assay): NCI anticancer screen, dose series, 48 h

Each structure is given as a SMILES string.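 How tested: cells in 96-well plates exposed to compound for 48 hours at five concentrations. TGI: total growth inhibition.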

Our source for the TGI values is PubChem BioAssay (NCI).

As for `C=C1C(=O)O[C@H]2C/C(C)=C/CC[C@@]3(C)O[C@](C)(CC[C@@H]3I)[C@@H](I)C[C@@H]12`, the TGI is 10.9 µM in the experiment on 786-0 renal; 14 µM in the experiment with CAKI-1 renal; 12.5 µM in the experiment on COLO 205 colon; 15.6 µM in the experiment with HOP-62 NSCLC; 26 µM in the experiment on HS 578T breast; 29.9 µM with K-562 leukemia. Besides, the TGI in the experiment on NCI-H460 lung stood at 13.2 µM; in the experiment with OVCAR-3 ovarian, 8.63 µM; in the experiment with OVCAR-5 ovarian, 26.2 µM; in the experiment with PC-3 prostate, 22.9 µM; in the experiment with RPMI-8226 leukemia, 5.12 µM; in the experiment on SF-268 CNS, 14.4 µM. In addition, the TGI stood at 14.4 µM in the experiment on SF-539 CNS; 14.4 µM in the experiment on SK-OV-3 ovarian; 16.4 µM in the experiment with SN12C renal; 13.5 µM with SNB-19 CNS; 11.7 µM with U251 CNS.

Turning to `C=CCN(c1cc(OCc2ccccc2)c2[nH]cc(C)c2c1)S(C)(=O)=O`, the TGI in the experiment with 786-0 renal, in the experiment with CAKI-1 renal, in the experiment on COLO 205 colon, in the experiment on HOP-62 NSCLC, in the experiment on HS 578T breast and in the experiment with K-562 leukemia was greater than 100 µM throughout. Also, the TGI with NCI-H460 lung, in the experiment on OVCAR-3 ovarian, in the experiment with OVCAR-5 ovarian, in the experiment on PC-3 prostate, with RPMI-8226 leukemia and in the experiment with SF-268 CNS was greater than 100 µM in each case. The TGI with SF-539 CNS, in the experiment with SK-OV-3 ovarian, in the experiment on SN12C renal, with SNB-19 CNS and in the experiment with U251 CNS was greater than 100 µM in each case.

With `CC(Nc1ncc2c(n1)-c1ccccc1OC2)C(=O)O` (centres undefined), the TGI in the experiment with 786-0 renal, in the experiment with CAKI-1 renal, in the experiment on COLO 205 colon, in the experiment with HOP-62 NSCLC, in the experiment on HS 578T breast and in the experiment on K-562 leukemia was greater than 100 µM in each case. The TGI in the experiment on NCI-H460 lung, in the experiment on OVCAR-3 ovarian, in the experiment with OVCAR-5 ovarian, with PC-3 prostate, in the experiment with RPMI-8226 leukemia and with SF-268 CNS was greater than 100 µM each time. In addition, the TGI with SF-539 CNS, with SK-OV-3 ovarian, in the experiment on SN12C renal, in the experiment on SNB-19 CNS and with U251 CNS was greater than 100 µM in each case.

Consider `O=P12N(CCN1c1ccccc1)CCN2c1ccccc1`, for which the TGI in the experiment with 786-0 renal, in the experiment on CAKI-1 renal, with COLO 205 colon, in the experiment on HOP-62 NSCLC, in the experiment on HS 578T breast and in the experiment with K-562 leukemia was greater than 100 µM each time. Further, the TGI in the experiment on NCI-H460 lung, with OVCAR-3 ovarian, with OVCAR-5 ovarian, in the experiment with PC-3 prostate, in the experiment on RPMI-8226 leukemia and in the experiment with SF-268 CNS was greater than 100 µM throughout. In addition, the TGI in the experiment with SF-539 CNS, with SK-OV-3 ovarian, in the experiment with SN12C renal, in the experiment on SNB-19 CNS and in the experiment with U251 CNS was greater than 100 µM throughout.

As to `O=C1NC(=O)C(F)(n2cc(F)c(=O)[nH]c2=O)C(O)N1` (centres undefined), the TGI in the experiment on 786-0 renal, in the experiment with CAKI-1 renal, with COLO 205 colon, in the experiment with HOP-62 NSCLC, with HS 578T breast and with K-562 leukemia was greater than 10 µM each time. Also, the TGI in the experiment on NCI-H460 lung, in the experiment on OVCAR-3 ovarian, with OVCAR-5 ovarian, with PC-3 prostate, in the experiment on RPMI-8226 leukemia and with SF-268 CNS was greater than 10 µM in each case. For the same compound, the TGI with SF-539 CNS, in the experiment on SK-OV-3 ovarian, with SN12C renal, in the experiment on SNB-19 CNS and in the experiment with U251 CNS was greater than 10 µM each time.

With `c1ccc2c(Cc3[nH]c4ccccc4c3Cc3c[nH]c4ccccc34)c[nH]c2c1`, the TGI in the experiment on 786-0 renal turned out to be 4.25 µM; in the experiment with CAKI-1 renal it was 10.3 µM; in the experiment with COLO 205 colon, 3.99 µM; in the experiment with HOP-62 NSCLC it was 12.7 µM; in the experiment on HS 578T breast, 5.54 µM; in the experiment with K-562 leukemia, 10.5 µM. Moreover, the TGI with NCI-H460 lung amounted to 4.17 µM; in the experiment on OVCAR-3 ovarian, 9.68 µM; in the experiment with OVCAR-5 ovarian, 8.93 µM; in the experiment with PC-3 prostate it was 8.37 µM; in the experiment on RPMI-8226 leukemia, 12.2 µM; in the experiment with SF-268 CNS, 4.86 µM. Moreover, the TGI in the experiment with SF-539 CNS amounted to 7.03 µM; in the experiment with SK-OV-3 ovarian, 15.4 µM; with SN12C renal, 4.2 µM; in the experiment on SNB-19 CNS it was 25.3 µM; in the experiment with U251 CNS, 9.78 µM.

With `CC(NC(=O)/C(=C/c1ccccc1)NC(=O)c1ccccc1)C(=O)O` (centres undefined), the TGI with 786-0 renal, with CAKI-1 renal, in the experiment on COLO 205 colon, with HOP-62 NSCLC, in the experiment on HS 578T breast and in the experiment on K-562 leukemia was greater than 100 µM throughout. Besides, the TGI in the experiment on NCI-H460 lung, with OVCAR-3 ovarian, in the experiment on OVCAR-5 ovarian, with PC-3 prostate, in the experiment with RPMI-8226 leukemia and in the experiment on SF-268 CNS was greater than 100 µM each time. For the same compound, the TGI in the experiment with SF-539 CNS was 96.6 µM; in the experiment on SK-OV-3 ovarian it was greater than 100 µM; with SN12C renal, greater than 100 µM; with SNB-19 CNS, greater than 100 µM; with U251 CNS, greater than 100 µM.

For `COc1ccc(N=Nc2c(C)c(C#N)c(=S)n(C3OC(CO)C(O)C(O)C3O)c2-c2ccccc2)cc1` (centres undefined), the TGI is greater than 100 µM with 786-0 renal; 73.3 µM in the experiment on CAKI-1 renal; greater than 100 µM with COLO 205 colon; 98.2 µM in the experiment on HOP-62 NSCLC; 55.3 µM in the experiment on HS 578T breast; greater than 100 µM with K-562 leukemia. Moreover, the TGI is greater than 100 µM in the experiment with NCI-H460 lung; 55.3 µM with OVCAR-3 ovarian; 81.6 µM with OVCAR-5 ovarian; 66.3 µM in the experiment with PC-3 prostate; greater than 100 µM in the experiment on RPMI-8226 leukemia; greater than 100 µM in the experiment on SF-268 CNS. For the same compound, the TGI in the experiment on SF-539 CNS was greater than 100 µM; with SK-OV-3 ovarian, 83.3 µM; in the experiment on SN12C renal, greater than 100 µM; in the experiment on SNB-19 CNS, greater than 100 µM; in the experiment on U251 CNS it was 86.1 µM.

In the case of `CC(C)C1C(=O)N(c2c(F)c(F)c(F)c(F)c2F)C(=S)N1CCS(=O)c1ccccc1` (centres undefined), the TGI stood at 32.1 µM in the experiment on 786-0 renal; 9.86 µM in the experiment with CAKI-1 renal; 29.9 µM with COLO 205 colon; 40.8 µM in the experiment on HOP-62 NSCLC; 62.6 µM in the experiment on HS 578T breast; 39.6 µM with K-562 leukemia. For the same compound, the TGI in the experiment on NCI-H460 lung is 40.1 µM; in the experiment on OVCAR-3 ovarian, 30.5 µM; in the experiment with OVCAR-5 ovarian it was 32.5 µM; with PC-3 prostate, 29.3 µM; in the experiment with RPMI-8226 leukemia it was 53.8 µM; in the experiment with SF-268 CNS, 32.6 µM. Also, the TGI in the experiment on SF-539 CNS was found to be 36.2 µM; in the experiment with SK-OV-3 ovarian, 34.9 µM; in the experiment with SN12C renal, 31 µM; in the experiment with SNB-19 CNS, 34.6 µM; in the experiment on U251 CNS, 28 µM.

As to `O=c1cc(N=Nc2ccc(Br)cc2)[nH]c(=S)[nH]1`, the TGI with 786-0 renal was 17.1 µM; in the experiment with CAKI-1 renal, 23 µM; in the experiment with COLO 205 colon it was 45.1 µM; with HOP-62 NSCLC it was greater than 100 µM; with HS 578T breast, greater than 100 µM; in the experiment with K-562 leukemia it was 54.4 µM. In addition, the TGI in the experiment on NCI-H460 lung is greater than 100 µM; in the experiment on OVCAR-3 ovarian, 28.9 µM; in the experiment with OVCAR-5 ovarian, greater than 100 µM; in the experiment with PC-3 prostate, greater than 100 µM; with RPMI-8226 leukemia, 57.9 µM; with SF-268 CNS, greater than 100 µM. Besides, the TGI with SF-539 CNS, in the experiment on SK-OV-3 ovarian, in the experiment on SN12C renal, in the experiment on SNB-19 CNS and in the experiment on U251 CNS was greater than 100 µM throughout.

With `CCCCNC(=O)c1cc2c(cc1Cl)Sc1nccn1S2(=O)=O`, the TGI with 786-0 renal is greater than 100 µM; with CAKI-1 renal it was 34.3 µM; with COLO 205 colon, greater than 100 µM; in the experiment with HOP-62 NSCLC it was greater than 100 µM; with HS 578T breast, greater than 100 µM; with K-562 leukemia it was greater than 100 µM. Further, the TGI with NCI-H460 lung, in the experiment with OVCAR-3 ovarian, in the experiment on OVCAR-5 ovarian, in the experiment on PC-3 prostate, with RPMI-8226 leukemia and in the experiment with SF-268 CNS was greater than 100 µM each time. Moreover, the TGI in the experiment on SF-539 CNS, with SK-OV-3 ovarian, in the experiment on SN12C renal, in the experiment on SNB-19 CNS and in the experiment on U251 CNS was greater than 100 µM in each case.

With `O=C1CSC(/C=C/c2ccccc2)N1c1nc2cc3sc(N4C(=O)CSC4/C=C/c4ccccc4)nc3cc2s1` (centres undefined), the TGI was greater than 100 µM with 786-0 renal; greater than 100 µM with CAKI-1 renal; greater than 29.8 µM with COLO 205 colon; greater than 100 µM in the experiment on HOP-62 NSCLC; greater than 100 µM in the experiment with HS 578T breast; greater than 100 µM with K-562 leukemia. Also, the TGI with NCI-H460 lung, with OVCAR-3 ovarian, with OVCAR-5 ovarian, in the experiment on PC-3 prostate, in the experiment on RPMI-8226 leukemia and in the experiment on SF-268 CNS was greater than 100 µM each time. The TGI in the experiment with SF-539 CNS was 9.61 µM; with SK-OV-3 ovarian, greater than 100 µM; in the experiment on SN12C renal, greater than 100 µM; with SNB-19 CNS it was greater than 100 µM; in the experiment with U251 CNS, greater than 100 µM.
